The source of these data is PMC12459314, “Subcutaneous administration of a novel TRPM8 antagonist reverses cold hypersensitivity while attenuating the drop in core body temperature” (British journal of pharmacology, 2024).

Data set [1] addresses T1, dopamine transporter (DAT) (Homo sapiens, UniProt Q01959).
T1 construct: purchased Eurofins DiscoverX (SAFETYscan E/IC50 ELECT service)
Kind of data set: SAFETYscan E/IC50 ELECT, dopamine transporter antagonist assay. To be noted: single experiment. The format is cell-based. The procedure:
(§1) Assessment of the safety profile of VBJ103 across 78 assays using recombinant human targets was performed with the SAFETYscan E/IC50 ELECT service by Eurofins DiscoverX (San Diego, CA, USA). […] The assays were performed utilizing PathHunter enzyme fragment complementation (EFC) technology, FLIPR®-based cellular screening assays, KINOMEscan kinase binding assays and a variety of enzymatic assays. Further potential functional activity at opioid receptors was performed in the gpcrSCAN service by Eurofins DiscoverX. Hit Hunter® cAMP assays were carried out using Enzyme Fragment Complementation (EFC) with β-galactosidase (β-Gal) as the functional reporter.

The target of data set [2] is T2, κ opioid receptor (OPRK1) (Homo sapiens, UniProt P41145).
T2 construct: purchased Eurofins DiscoverX (SAFETYscan; gpcrSCAN; HitHunter cAMP XS+)
T2 sequence (P41145 whole entry): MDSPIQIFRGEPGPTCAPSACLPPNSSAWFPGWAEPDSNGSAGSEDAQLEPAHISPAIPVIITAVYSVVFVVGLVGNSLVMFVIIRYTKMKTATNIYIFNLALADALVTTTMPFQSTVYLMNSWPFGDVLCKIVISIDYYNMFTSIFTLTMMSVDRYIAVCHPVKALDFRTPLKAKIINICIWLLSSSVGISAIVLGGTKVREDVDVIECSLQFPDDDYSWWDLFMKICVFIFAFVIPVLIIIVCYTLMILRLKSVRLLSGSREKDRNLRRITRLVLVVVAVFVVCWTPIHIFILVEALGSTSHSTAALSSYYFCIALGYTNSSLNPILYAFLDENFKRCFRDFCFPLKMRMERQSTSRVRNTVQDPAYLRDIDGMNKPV
Put plainly: Eurofins DiscoverX opioid receptor assays (SAFETYscan; HitHunter cAMP), OPRK1. The format is cell-based. The procedure:
as §1
Assessment of potential positive allosteric modulator (PAM) activity at μ, δ and κ opioid receptors was performed with the DiscoverX HitHunter cAMP XS+ assay by Eurofins DiscoverX (San Diego, CA, USA).

A short description of data set [3]: Core body temperature by radiotelemetry after i.c.v. administration. The format is in vivo, mouse. To be noted: 306 nmol per 1 μL i.c.v. The procedure:
A second set of male C57Bl6J mice (Jackson Laboratories, n = 8) was implanted with telemetry as described above and a 26-gauge brain cannula (Plastics One) targeted at the lateral ventricle using coordinates relative to Bregma: 0.3 mm caudal, 1.0 mm lateral, 3.0 mm ventral. This second procedure was also performed under isoflurane anesthesia. The brain cannula was secured to the skull with two screws and dental cement. Animals were treated with buprenex (0.05 mg·kg^−1, s.c. every 8 h for 48 h) and enrofloxacin (2 mg·kg^−1, s.c.), singly housed and handled daily as described above. A single i.c.v. injection was performed every other day in a randomized order and included: (1) Galanin-like peptide (3 nmol/1 μL), (2) VBJ103 (306 nmol/1 μL) and (3) VBJ103 vehicle (1 μL). Galanin-like peptide produced a decrease in body temperature in five of eight mice. Therefore, body temperature data in response to VBJ103 and vehicle are presented in these five mice. These studies were carried out with a single dose of VBJ103 (306 nmol/1 μL or ~4 mg·kg^−1), which was the highest dose achievable due to constraints of the injection volume and the solubility of VBJ103.

Data set [4] is described as follows: Brain levels in vivo by UPLC-MS/MS. On the set-up: species or system rat. The procedure:
VBJ103 levels in the brain were determined by PsychoGenics Inc (Paramus, USA). VBJ103 and vehicle solutions were administered subcutaneously at a dose of 100 mg·kg^−1. Male and female Sprague–Dawley rats (200–250 g) supplied by Envigo were used in this study and housed three per cage (26 cm × 47.6 cm × 20.3 cm) upon arrival. Rats with jugular vein catheters (JVC) were housed two per cage with a divider to prevent damage to catheters. Cages contained BedO’-Cob® bedding with Nylabones® for enrichment. Rats were acclimatised for 2 to 7 days prior to commencing studies. All rats were examined, handled and weighed prior to initiation of the study to assure adequate health and suitability. During the course of the study, 12/12 light/dark cycles were maintained with lights on at 6 AM. The room temperature was maintained between 20°C and 23°C with a relative humidity maintained around 50%. Chow (Lab diet 5001, LabDiet, St. Louis, MO, USA) and water were provided ad libitum throughout the acclimatisation period and during the treatment and collection period. Rats were randomly assigned to the experimental groups.
UPLC-MS/MS analysis was performed on a ODS 3 Inertsil C18 column 2.1 × 50 mm, 2 μm (GL Sciences 5020–84652), using a gradient of 40:60 solvent A (H2O + 0.5% formic acid):solvent B (ACN + 1.0% formic acid) → 0:100 for 2 min at a flow rate of 0.5 ml·min^−1. The following parameters were used: injection volume 5 μl, column temperature 40°C, pre-column temperature 40°C and sample temperature 4°C. Eluted peaks were monitored with a Waters Xevo TQ-XS coupled to an Acquity i-Class Plus UPLC setup (range: 334.19 Da to 155.04 and 198.08 Da). RT = 1.15 min. The range of quantitation was 0.25 to 10,000 ng·ml^−1 for brain. The software Masslynx V4.2 SCN1012 was used for instrument control and data acquisition.
Brain collection was performed via live decapitation. Whole brains were collected at 1 h following administration and upon completion of serial collections (24 h). Resultant brains were rinsed in saline and frozen immediately on a cold plate (−77°C) before placement into a pre-weighed specimen container. Brain weights were then determined prior to placement of the samples on dry ice followed by relocation to a −80°C freezer pending bioanalysis.
Pre-weighed whole brain tissue was homogenized (Omni Prep multichannel tissue homogenizer) using a 1:1 MilliQ water (containing 0.2% acetic acid)/acetonitrile mixture which was added to the brain using a 4:1 solution to brain ratio. Subsequently, the homogenate was centrifuged for 10 min at 4°C at a speed of 2688 g. Three 25-μl aliquots out of the top layer of the centrifuged homogenate were crashed into three QuanRecovery wells, each containing 150 μl of acetonitrile/internal standard. The crash was then centrifuged for 20 min at 2688 g while maintaining a temperature of 4°C. Mixing of the resultant supernatant with water (3:2) provided samples for triplicate analysis. Brain standards, quality controls (QCs) and blanks were prepared using a male Sprague–Dawley brain acquired from BioIVT using the same protocol outlined above. All standards, QCs, samples and blanks were then loaded onto the UPLC-MS/MS for analysis.
The concentration of VBJ103/mass was based on brain weights. The volume of the homogenate was based on a 4:1 dilution of the brains. The volumes of homogenate was calculated based on brain weights in Table S13.

In the next data set the test system is human TRPM8. On the set-up: method as in Journigan et al., 2020. To be noted: ref Journigan et al., 2020, cited from earlier work.
On the set-up of data set [5]: method as in Journigan et al., 2020. The settings on record: intraplantar administration; ref Journigan et al., 2020; cited from earlier work.
For data set [6] the following is noted: ref Journigan et al, 2020; cited from earlier work.

Values joined by “and” are separate entries in the source; they are usually repeats but may differ in a detail not shown here. Equal entries are not always repeated. Where two headings read alike, the source gives them in different places.

T1 sequence (Q01959 whole entry): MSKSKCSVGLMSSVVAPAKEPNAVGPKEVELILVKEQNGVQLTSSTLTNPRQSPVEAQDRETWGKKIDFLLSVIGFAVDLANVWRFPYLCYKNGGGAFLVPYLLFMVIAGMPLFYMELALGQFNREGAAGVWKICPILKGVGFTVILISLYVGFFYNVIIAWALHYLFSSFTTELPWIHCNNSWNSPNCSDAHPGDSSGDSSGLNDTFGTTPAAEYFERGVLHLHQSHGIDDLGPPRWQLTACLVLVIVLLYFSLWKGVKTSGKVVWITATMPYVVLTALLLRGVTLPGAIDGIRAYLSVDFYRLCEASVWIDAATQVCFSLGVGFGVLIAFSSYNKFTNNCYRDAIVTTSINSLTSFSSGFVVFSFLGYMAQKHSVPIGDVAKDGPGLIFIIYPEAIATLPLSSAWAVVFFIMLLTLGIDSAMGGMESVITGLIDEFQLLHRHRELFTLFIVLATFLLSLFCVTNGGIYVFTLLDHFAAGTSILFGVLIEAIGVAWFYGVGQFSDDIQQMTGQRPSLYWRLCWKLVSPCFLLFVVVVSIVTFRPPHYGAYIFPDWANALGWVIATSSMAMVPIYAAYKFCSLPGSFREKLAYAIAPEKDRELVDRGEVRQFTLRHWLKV

On to `O=C(NC1CCC2(CCCC2)CC1)c1ccc(-c2ccccc2)cc1` [VBJ103, N-(Spiro[4.5]decan-8-yl)-[1,1′-biphenyl]-4-carboxamide], for which the IC50 (usually the midpoint of a concentration-inhibition curve) in data set [1] (10 concentrations, 0.005 to 100 μM) was 125 nM and ~125 nM; in the data set on human TRPM8 (against menthol-stimulated currents), 64 ± 2 nM. Further, the DAT maximal inhibition in data set [1] (in relation to the control GBR 12909) is recorded as ~ 60%. The Emax in data set [2] (Positive Allosteric Modulator format, read-out: Max Response, cAMP) was determined as 19.7%. Besides, the 50% effective concentration (EC50) (commonly the concentration that produces a half-maximal response) in data set [2] (read-out: RC50 (EC50), cAMP) is more than 100000 nM. Moreover, the “activity at κ opioid receptor” value in data set [2] (safety panel) is listed as “no activity”. In addition, the “change in CBT compared to vehicle” value in data set [3] is “did not significantly (P > 0.05) alter”. Moreover, the concentration at 1 h in data set [4] (female SD rats (animals 13-16), 100 mg/kg SC, 24 h, 100 mg/kg, read-out: brain levels, individual animals) is 14.6 nM and 11.9 nM and 7.1 nM and 8.1 nM; in data set [4] (female SD rats (animals 26-28), 100 mg/kg SC, 1 h, 100 mg/kg, read-out: brain levels, individual animals) it was 39 nM and 51 nM; in data set [4] (female, Sprague-Dawley, rat, brain, sc, 100 mg/kg, female SD rats (animals 26-28), 100 mg/kg SC, 1 h, read-out: brain levels, individual animals), 40 nM; in data set [4] (female, Sprague-Dawley, rat, brain, sc, 100 mg·kg^−1, female rats, 100 mg·kg−1 s.c., 1 h per Table S12, read-out: mean brain concentration) it was 43 ± 4 nM; in data set [4] (male SD rats (animals 9-12), 100 mg/kg SC, 24 h, 100 mg/kg, read-out: brain levels, individual animals), 6.9 nM and 7.9 nM and 3.9 nM and 4.9 nM; in data set [4] (male SD rats (animals 23-25), 100 mg/kg SC, 1 h, 100 mg/kg, read-out: brain levels, individual animals), 47 nM and 56 nM. The concentration at 1 h is 53 nM in data set [4] (male, Sprague-Dawley, rat, brain, sc, 100 mg/kg, male SD rats (animals 23-25), 100 mg/kg SC, 1 h, read-out: brain levels, individual animals) and 52 ± 2 nM in data set [4] (male, Sprague-Dawley, rat, brain, sc, 100 mg·kg^−1, male rats, 100 mg·kg−1 s.c., 1 h per Table S12, read-out: mean brain concentration). Further, the “selectivity for human TRPM8 versus TRPA1 and TRPV1” value in the data set on human TRPM8 (heterologously expressed channels) is on record as ~ 10 fold. Further, the “oxaliplatin-induced hypersensitivity to non-noxious cooling (acetone drop)” value in data set [5] was “dose-dependently suppresses”. Also, the “Mouse Liver microsomes, T1/2” value in data set [6] is given as 30 min.
